{"source": "paper doi:10.1101/2024.07.10.602890", "about": "“H105A peptide eye drops promote photoreceptor survival in murine and human models of retinal degeneration” (bioRxiv, 2024)", "key": {"[1]": {"biological_target": "T1, recombinant human PEDF-R[1–288] (Homo sapiens, UniProt Q96AD5)", "T1 construct": "SUMOstar (N); His tag (implied by HisTrap purification; part of the pE-SUMOstar vector) (N); TwinStrep (C); made in house; host or cells: Escherichia coli Rosetta(DE3), co-transformed with pGro7 (groES-groEL)", "T1 sequence (Q96AD5 1-288)": "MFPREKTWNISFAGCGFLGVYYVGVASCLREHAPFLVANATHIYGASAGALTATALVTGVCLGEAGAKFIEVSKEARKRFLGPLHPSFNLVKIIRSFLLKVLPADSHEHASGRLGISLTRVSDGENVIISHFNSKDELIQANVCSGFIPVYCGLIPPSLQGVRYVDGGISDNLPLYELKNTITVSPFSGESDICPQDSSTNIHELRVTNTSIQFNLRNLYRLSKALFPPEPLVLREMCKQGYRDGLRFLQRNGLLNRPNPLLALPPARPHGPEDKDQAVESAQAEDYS", "assay": "Phospholipase A2 (PLA2) activity assay of PEDF-R with peptides", "assay_type": "biochemical", "details": "purified recombinant PEDF-R[1–288] 60 nM; peptides preincubated 30 min at room temperature; EnzChek PLA2 kit; six replicate reactions", "source_text": "Fig. 1: Penetration and Bioavailability of PEDF Peptides 17-mer, H105A, and R99A Delivered via Eye Drops in Mouse Retinas (A) Peptide mapping and sequence. Tertiary structure of human PEDF highlighting the small peptide region with neurotrophic activity (17-mer) in blue (top). Primary structure of human PEDF showing the location of the 17-mer region (middle). Sequences of the 17-mer peptide and its variants, H105A and R99A (bottom). (B) In vivo detection of peptides. Fundus micrographs showing fluorescence from Alexa Fluor 488-labeled 17-mer, H105A, and R99A peptides in the eyes of C57Bl/6J mice at P21 days after eye drop administration of 5 μl of peptide at 1 mg/ml (left). […] Quantification of fluorescence intensity over time post-administration (right). […] (C) Quantification of peptide in retinas. […] The amount of peptide was quantified from the fluorescence in retinal extracts using standard curves (Fig. S6A). […] (D) Retinal cross-sections showing fluorescence distribution in the photoreceptor layer 1 hour after applying eye drops as in Panel B. Representative images for labeled 17-mer, H105A, and R99A peptides are shown, with magnified areas of 17-mer and H105A indicated by dotted rectangles. […] (F) Effects of 17-mer, H105A, and R99A peptides on the PLA2 activity of PEDF-R. Peptides were preincubated with recombinant human PEDF-R[1–288] for 30 min, and PLA2 activity was measured. […]"}, "[2]": {"tested_on": "rd10 and rd10/Serpinf1−/− mice", "assay": "BAX and BCL2 immunofluorescence of retinal sections after peptide eye drops", "assay_type": "in vivo, mouse", "details": "eye drops 1 mg/ml, vs vehicle, five retinas per group", "procedure": "Fig. 3: Eyedrops of 17-mer and H105A peptides decreased the BAX/BCL2 ratio in photoreceptors of rd10 and rd10/Serpinf1−/− mice (A and B) Immunostaining of retinas. Representative fluorescent micrographs of retinas from rd10 (A) and rd10/Serpinf1^−/− (B) mice treated with 17-mer or H105A peptides at 1 mg/ml via eye drops, along with vehicle-treated controls. Immunostaining was performed with antibodies against BAX or BCL2 (green), and DAPI (blue). Histograms show quantification of immunofluorescence intensity for BAX and BCL2 markers. […] Each individual data point represents the average of one retina, with statistical significance determined by unpaired t-test (***p < 0.0001, ****p < 0.00001). Scale bar = 40 μm.\nBoth eyes were oriented before enucleation to allow sectioning along the dorsal/ventral axis. Enucleated eyes from rd10 and rd10 × Serpinf1^−/− mice were incised in the cornea and fixed in 2.5% glutaraldehyde for 20 min and then in 10% neutral buffered formalin at 4°C for at least 48 h, followed by paraffin embedding, sectioning, and staining with either H&E or immunofluorescence procedures, as previously described ([28]). For fluorescence microscopy, antibodies, and 0.1 μg/ml DAPI were used to immunostain and nuclei counterstain the sections, respectively. Antibodies used in the study are in Table S3. Images were acquired using a ZEIS 700 confocal microscope. Fluorescence intensity was quantified using ImageJ as previously described ([14], [26])."}}, "note": "Ends that are not written are not given here."}
{"sequence": "QRTESIIARALYYDLIS [H105A]", "values": [{"measurement": "stimulation of PLA2 activity of PEDF-R", "setting": "[1]", "result": "capable of stimulating its PLA2 activity"}, {"measurement": "BAX level in photoreceptors (immunofluorescence)", "setting": "[2]", "result": "significantly decreased"}, {"measurement": "BCL2 level in photoreceptors (immunofluorescence)", "setting": "[2]", "result": "increased"}]}
{"sequence": "QRTESIIHRALYYDLIS [17-mer]", "values": [{"measurement": "stimulation of PLA2 activity of PEDF-R", "setting": "[1]", "result": "capable of stimulating its PLA2 activity"}, {"measurement": "BAX level in photoreceptors (immunofluorescence)", "setting": "[2]", "result": "significantly decreased"}, {"measurement": "BCL2 level in photoreceptors (immunofluorescence)", "setting": "[2]", "result": "increased"}]}
